# From PubChem BioAssay (NCI)
#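 Cells were grown in 96-well plates and exposed to each compound for 48 hours at five concentrations; endpoints were interpolated linearly between bracketing concentrations, or set to the highest concentration if not reached. TGI: total growth inhibition.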
# What was measured:
# Experiment in all cases: DTP human tumour cell line panel, 48 h
# 786-0 renal = system: 786-0 renal
# A549 NSCLC = system: A549 NSCLC
# ACHN renal = system: ACHN renal
# BT-549 breast = system: BT-549 breast
# CAKI-1 renal = system: CAKI-1 renal
# CCRF-CEM leukemia = system: CCRF-CEM leukemia
# COLO 205 colon = system: COLO 205 colon
# DU-145 prostate = system: DU-145 prostate
# EKVX NSCLC = system: EKVX NSCLC
# HCC-2998 colon = system: HCC-2998 colon
# HCT-116 colon = system: HCT-116 colon
# HCT-15 colon = system: HCT-15 colon
# HL-60(TB) leukemia = system: HL-60(TB) leukemia
# HOP-62 NSCLC = system: HOP-62 NSCLC
# HOP-92 NSCLC = system: HOP-92 NSCLC
# HS 578T breast = system: HS 578T breast
# HT29 colon = system: HT29 colon
# IGROV1 ovarian = system: IGROV1 ovarian
# K-562 leukemia = system: K-562 leukemia
# KM12 colon = system: KM12 colon
# LOX IMVI melanoma = system: LOX IMVI melanoma
# M14 melanoma = system: M14 melanoma
# MALME-3M melanoma = system: MALME-3M melanoma
# MCF7 breast = system: MCF7 breast
# MDA-MB-231 breast = system: MDA-MB-231 breast
# MDA-MB-435 = system: MDA-MB-435
# MDA-N = system: MDA-N
# MOLT-4 leukemia = system: MOLT-4 leukemia
# NCI-H226 lung = system: NCI-H226 lung
# NCI-H23 lung = system: NCI-H23 lung
# NCI-H460 lung = system: NCI-H460 lung
# NCI/ADR-RES ovarian = system: NCI/ADR-RES ovarian
# OVCAR-3 ovarian = system: OVCAR-3 ovarian
# OVCAR-4 ovarian = system: OVCAR-4 ovarian
# OVCAR-5 ovarian = system: OVCAR-5 ovarian
# OVCAR-8 ovarian = system: OVCAR-8 ovarian
# PC-3 prostate = system: PC-3 prostate
# RPMI-8226 leukemia = system: RPMI-8226 leukemia
# RXF 393 renal = system: RXF 393 renal
# SF-268 CNS = system: SF-268 CNS
# SF-295 CNS = system: SF-295 CNS
# SF-539 CNS = system: SF-539 CNS
# SK-MEL-2 melanoma = system: SK-MEL-2 melanoma
# SK-MEL-5 melanoma = system: SK-MEL-5 melanoma
# SK-OV-3 ovarian = system: SK-OV-3 ovarian
# SN12C renal = system: SN12C renal
# SNB-19 CNS = system: SNB-19 CNS
# SW-620 colon = system: SW-620 colon
# T-47D breast = system: T-47D breast
# TK-10 renal = system: TK-10 renal
# U251 CNS = system: U251 CNS
# UACC-257 melanoma = system: UACC-257 melanoma
# UACC-62 melanoma = system: UACC-62 melanoma
# UO-31 renal = system: UO-31 renal
# A498 renal = system: A498 renal
# NCI-H522 lung = system: NCI-H522 lung
# SK-MEL-28 melanoma = system: SK-MEL-28 melanoma
structure (smiles),measurement,setting,value
CCN1C(=O)C(=C/C=C/c2ccc(OC)cc2)C(=O)N(CC)C1=S,TGI,786-0 renal,32.6 µM
same,TGI,A549 NSCLC,> 100 µM
same,TGI,ACHN renal,31.5 µM
same,TGI,BT-549 breast,90.1 µM
same,TGI,CAKI-1 renal,47.2 µM
same,TGI,CCRF-CEM leukemia,75.3 µM
same,TGI,COLO 205 colon,36 µM
same,TGI,DU-145 prostate,34 µM
same,TGI,EKVX NSCLC,78.9 µM
same,TGI,HCC-2998 colon,> 100 µM
same,TGI,HCT-116 colon,31.8 µM
same,TGI,HCT-15 colon,36.4 µM
same,TGI,HL-60(TB) leukemia,> 100 µM
same,TGI,HOP-62 NSCLC,36.1 µM
same,TGI,HOP-92 NSCLC,28.9 µM
same,TGI,HS 578T breast,> 100 µM
same,TGI,HT29 colon,58.9 µM
same,TGI,IGROV1 ovarian,35.7 µM
same,TGI,K-562 leukemia,> 100 µM
same,TGI,KM12 colon,40.5 µM
same,TGI,LOX IMVI melanoma,32.6 µM
same,TGI,M14 melanoma,52.5 µM
same,TGI,MALME-3M melanoma,28 µM
same,TGI,MCF7 breast,> 100 µM
same,TGI,MDA-MB-231 breast,37.2 µM
same,TGI,MDA-MB-435,43.6 µM
same,TGI,MDA-N,36.6 µM
same,TGI,MOLT-4 leukemia,> 100 µM
same,TGI,NCI-H226 lung,> 100 µM
same,TGI,NCI-H23 lung,> 100 µM
same,TGI,NCI-H460 lung,> 100 µM
same,TGI,NCI/ADR-RES ovarian,37.4 µM
same,TGI,OVCAR-3 ovarian,31.2 µM
same,TGI,OVCAR-4 ovarian,> 100 µM
same,TGI,OVCAR-5 ovarian,> 100 µM
same,TGI,OVCAR-8 ovarian,44.7 µM
same,TGI,PC-3 prostate,37.3 µM
same,TGI,RPMI-8226 leukemia,> 100 µM
same,TGI,RXF 393 renal,39.8 µM
same,TGI,SF-268 CNS,88.3 µM
same,TGI,SF-295 CNS,> 100 µM
same,TGI,SF-539 CNS,40.4 µM
same,TGI,SK-MEL-2 melanoma,> 100 µM
same,TGI,SK-MEL-5 melanoma,71.7 µM
same,TGI,SK-OV-3 ovarian,57.8 µM
same,TGI,SN12C renal,35.4 µM
same,TGI,SNB-19 CNS,> 100 µM
same,TGI,SW-620 colon,44 µM
same,TGI,T-47D breast,> 100 µM
same,TGI,TK-10 renal,31.8 µM
same,TGI,U251 CNS,36.6 µM
same,TGI,UACC-257 melanoma,30.3 µM
same,TGI,UACC-62 melanoma,31.7 µM
same,TGI,UO-31 renal,> 100 µM
Cc1cc(-n2c(/C=C/c3ccc(Cl)cc3)nc3cc(Cl)ccc3c2=O)on1,TGI,786-0 renal,5.19 µM
same,TGI,A498 renal,11.5 µM
same,TGI,A549 NSCLC,> 50 µM
same,TGI,ACHN renal,24.1 µM
same,TGI,BT-549 breast,> 50 µM
same,TGI,CAKI-1 renal,> 50 µM
same,TGI,CCRF-CEM leukemia,> 50 µM
same,TGI,COLO 205 colon,> 50 µM
same,TGI,DU-145 prostate,> 50 µM
same,TGI,EKVX NSCLC,> 50 µM
same,TGI,HCC-2998 colon,> 50 µM
same,TGI,HCT-116 colon,29.6 µM
same,TGI,HCT-15 colon,> 50 µM
same,TGI,HL-60(TB) leukemia,> 50 µM
same,TGI,HOP-62 NSCLC,18.3 µM
same,TGI,HOP-92 NSCLC,> 50 µM
same,TGI,HS 578T breast,31.4 µM
same,TGI,HT29 colon,> 50 µM
same,TGI,IGROV1 ovarian,> 50 µM
same,TGI,K-562 leukemia,> 50 µM
same,TGI,KM12 colon,> 50 µM
same,TGI,LOX IMVI melanoma,> 50 µM
same,TGI,M14 melanoma,32.9 µM
same,TGI,MALME-3M melanoma,> 50 µM
same,TGI,MCF7 breast,> 50 µM
same,TGI,MDA-MB-231 breast,42.4 µM
same,TGI,MDA-MB-435,> 50 µM
same,TGI,MDA-N,> 50 µM
same,TGI,MOLT-4 leukemia,> 50 µM
same,TGI,NCI-H226 lung,33.2 µM
same,TGI,NCI-H23 lung,> 50 µM
same,TGI,NCI-H460 lung,22 µM
same,TGI,NCI-H522 lung,> 50 µM
same,TGI,NCI/ADR-RES ovarian,39 µM
same,TGI,OVCAR-3 ovarian,30.9 µM
same,TGI,OVCAR-4 ovarian,4.05 µM
same,TGI,OVCAR-5 ovarian,> 50 µM
same,TGI,OVCAR-8 ovarian,47.7 µM
same,TGI,PC-3 prostate,> 50 µM
same,TGI,SF-268 CNS,> 50 µM
same,TGI,SF-295 CNS,> 50 µM
same,TGI,SF-539 CNS,> 50 µM
same,TGI,SK-MEL-28 melanoma,> 50 µM
same,TGI,SK-MEL-5 melanoma,> 50 µM
same,TGI,SK-OV-3 ovarian,42.3 µM
same,TGI,SN12C renal,> 50 µM
same,TGI,SNB-19 CNS,26.6 µM
same,TGI,SW-620 colon,> 50 µM
same,TGI,T-47D breast,> 50 µM
same,TGI,TK-10 renal,> 50 µM
same,TGI,U251 CNS,16.4 µM
same,TGI,UACC-257 melanoma,> 50 µM
same,TGI,UACC-62 melanoma,> 50 µM
same,TGI,UO-31 renal,19.7 µM
